Each structure is given as a SMILES string.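 Grown in 96-well plates, cells were treated for 48 hours with each compound at five concentrations. Insufficient inhibition: endpoint recorded as highest concentration tested. TGI is the concentration that stops growth completely.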

Among the test systems are A549 NSCLC; HL-60(TB) leukemia; KM12 colon; LOX IMVI melanoma; MALME-3M melanoma; MDA-MB-435; NCI-H522 lung; OVCAR-5 ovarian; SN12C renal.
What all share (assay): NCI tumour cell line growth inhibition, 48 h

As for `CCC(CC)(CO)CNc1cc(Cl)nc(N)n1`, the TGI in the test on A549 NSCLC, with HL-60(TB) leukemia, in the test with KM12 colon, in the test with LOX IMVI melanoma, with MALME-3M melanoma and in the test with MDA-MB-435 was > 100 µM each time. Besides, the TGI in the test with NCI-H522 lung, with OVCAR-5 ovarian and with SN12C renal was > 100 µM throughout.

With `Cc1[nH]c2ccccc2c1/C=N/NC(=O)c1cccc(I)c1`, the TGI is 85.6 µM with A549 NSCLC; 57.5 µM in the test with HL-60(TB) leukemia; 37.1 µM in the test with KM12 colon; 31.2 µM with LOX IMVI melanoma; 65.6 µM in the test with MALME-3M melanoma; 35.7 µM in the test with MDA-MB-435. In addition, the TGI in the test on NCI-H522 lung was 63.7 µM; in the test with OVCAR-5 ovarian it was 70.4 µM; in the test on SN12C renal, > 100 µM.

With `Cc1ccc(-c2cc[n+]3c(n2)oc2ccccc23)cc1`, the TGI with A549 NSCLC is > 100 µM; in the test with HL-60(TB) leukemia, 44.2 µM; with KM12 colon, > 100 µM; in the test on LOX IMVI melanoma, > 100 µM; in the test with MALME-3M melanoma, 29.1 µM; in the test with MDA-MB-435, 57.6 µM. Also, the TGI in the test with NCI-H522 lung is 20 µM; with OVCAR-5 ovarian it was > 100 µM; with SN12C renal, > 100 µM.

Turning to `CC1SC2(CCCCC2)N(NC(=O)CSc2nc3ccc(Cl)cc3c(=O)n2-c2ccccc2)C1=O` (stereo not given), the TGI is > 100 µM in the test with A549 NSCLC; 51 µM in the test on HL-60(TB) leukemia; > 100 µM in the test on KM12 colon; 37.4 µM in the test with LOX IMVI melanoma; 60.6 µM in the test with MALME-3M melanoma; 54.7 µM with MDA-MB-435. Besides, the results for the TGI with NCI-H522 lung, in the test with OVCAR-5 ovarian and with SN12C renal were 34.1 µM, 58.4 µM and 32.5 µM, respectively.

In the case of `COc1ccc(NC(C(N)=O)c2cc3cc(Br)ccc3nc2Cl)cc1` (stereo not given), the TGI with A549 NSCLC is > 100 µM; in the test with HL-60(TB) leukemia, > 100 µM; with KM12 colon, > 100 µM; in the test with LOX IMVI melanoma, > 100 µM; in the test with MALME-3M melanoma it was > 100 µM; with MDA-MB-435, 56.5 µM. For the same molecule, the TGI with NCI-H522 lung, in the test with OVCAR-5 ovarian and with SN12C renal was > 100 µM in each case.

Regarding `O=c1[nH]nc(Cc2ccccc2)n1/N=C/c1cccnc1`, the TGI with A549 NSCLC, with HL-60(TB) leukemia, in the test on KM12 colon, in the test on LOX IMVI melanoma, in the test on MALME-3M melanoma and in the test with MDA-MB-435 was > 100 µM throughout. Besides, the TGI with NCI-H522 lung, in the test on OVCAR-5 ovarian and in the test on SN12C renal was > 100 µM each time.

`O=C(c1cccnc1)N1N=C(c2ccccc2)CC1(O)c1cc(F)c(Cl)cc1Cl` (stereo not given): the TGI in the test with A549 NSCLC was > 100 µM; with HL-60(TB) leukemia, 51.3 µM; in the test with KM12 colon, > 100 µM; in the test on LOX IMVI melanoma, 30 µM; in the test on MALME-3M melanoma it was 83 µM; with MDA-MB-435, > 100 µM. Also, the TGI is > 100 µM in the test on NCI-H522 lung, > 100 µM in the test on OVCAR-5 ovarian and 39.6 µM in the test on SN12C renal.

As to `CC(=O)C(C(C)=O)[C@@H]1OC(C)(C)O[C@@H]1[C@H]1COC(C)(C)O1`, the TGI in the test with A549 NSCLC was > 100 µM; in the test on HL-60(TB) leukemia it was > 100 µM; with KM12 colon it was > 100 µM; in the test on LOX IMVI melanoma, > 100 µM; in the test on MALME-3M melanoma, 52.4 µM; in the test with MDA-MB-435 it was > 100 µM. Further, the results for the TGI in the test on NCI-H522 lung, in the test on OVCAR-5 ovarian and with SN12C renal were 81.2 µM, > 100 µM and 44.9 µM, respectively.

Regarding `Cn1c2ccccc2c2cc(N3CCCC3)c3c(c21)C(=O)N(c1ccccc1)C3=O`, the TGI in the test with A549 NSCLC, in the test with HL-60(TB) leukemia, in the test on KM12 colon, with LOX IMVI melanoma, with MALME-3M melanoma and in the test with MDA-MB-435 was > 100 µM in each case. In addition, the TGI in the test with NCI-H522 lung, in the test with OVCAR-5 ovarian and with SN12C renal was > 100 µM throughout.

With `N/C(=N\Nc1ccc(Cl)cc1)c1cnccn1`, the TGI in the test on A549 NSCLC, with HL-60(TB) leukemia, in the test with KM12 colon, with LOX IMVI melanoma, with MALME-3M melanoma and with MDA-MB-435 was > 100 µM throughout. Besides, the TGI in the test on NCI-H522 lung, in the test on OVCAR-5 ovarian and in the test with SN12C renal was > 100 µM in each case.

Take `O=C(CN1CCCCC1)Nc1ccc2c(c1)C1Oc3ccccc3CC1CO2` (stereo not given): the TGI was > 100 µM in the test with A549 NSCLC; > 100 µM in the test with HL-60(TB) leukemia; 49.9 µM with KM12 colon; 30 µM with LOX IMVI melanoma; 32.2 µM in the test with MALME-3M melanoma; 38.4 µM in the test with MDA-MB-435. In addition, the TGI with NCI-H522 lung is 36.3 µM; in the test on OVCAR-5 ovarian it was 38.2 µM; in the test with SN12C renal it was > 100 µM.

As to `C/C=C(\C)C(=O)O[C@@H]1CC(C)(C)CC2C3=CCC4[C@]56CC[C@](O)(OC5)C(C)(C)C6CC[C@@]4(C)C3(C)CC[C@]21C(=O)O` (stereo not given in full), the TGI in the test with A549 NSCLC, with HL-60(TB) leukemia, with KM12 colon, in the test on LOX IMVI melanoma, with MALME-3M melanoma and in the test with MDA-MB-435 was > 100 µM throughout. Also, the TGI with NCI-H522 lung, with OVCAR-5 ovarian and in the test on SN12C renal was > 100 µM throughout.

Regarding `O=c1c2cnccc2cc2c3ccccc3ccn12`, the TGI in the test on A549 NSCLC, with HL-60(TB) leukemia, in the test with KM12 colon, with LOX IMVI melanoma, in the test on MALME-3M melanoma and in the test with MDA-MB-435 was > 100 µM each time. Also, the TGI in the test on NCI-H522 lung, in the test with OVCAR-5 ovarian and with SN12C renal was > 100 µM each time.

For the molecule `CCCCc1ccc(Nc2nc(Cl)c3c(ncn3C3CC(Oc4ccc(C)cc4)C(COc4ccc(C)cc4)O3)n2)cc1` (stereo not given), the TGI with A549 NSCLC, with HL-60(TB) leukemia, in the test with KM12 colon, with LOX IMVI melanoma, in the test on MALME-3M melanoma and with MDA-MB-435 was > 100 µM throughout. Further, the TGI with NCI-H522 lung, with OVCAR-5 ovarian and with SN12C renal was > 100 µM each time.

Consider `CN1CCc2c(sc3ncn(Nc4ccc(Cl)cc4)c(=N)c23)C1`, for which the TGI in the test with A549 NSCLC, in the test with HL-60(TB) leukemia, in the test on KM12 colon, in the test with LOX IMVI melanoma, with MALME-3M melanoma and with MDA-MB-435 was > 100 µM in each case. Besides, the TGI in the test on NCI-H522 lung, in the test with OVCAR-5 ovarian and with SN12C renal was > 100 µM in each case.
